Measurements reported in US10406385B2 (Northwestern University, priority 2014, dated 2019).

Experiments:
injured skin = details: topical application at concentrations of 2-5%; cited from earlier work
[1] = no adverse reactions in any species even at large doses; cited from earlier work
[2] = system: Human umbilical vein endothelial cells (HUVEC); experiment: Effect of panthenol citrate oligomers on cell viability, HUVEC; type: cell-based; details: higher concentrations (1 mg/ml), 24 hours
Protocol: Human umbilical vein endothelial cells (HUVEC) (Lonza, Walkersville, Md.), adult human epidermal keratinocytes (HEKa) (Gibco, Carlsbad, Calif.), and human dermal fibroblast (HDF) (Lonza, Walkersville, Md.) were cultured in SmGM-2, Keratinocyte-SFM and DMEM, respectively, in a humidified incubator equilibrated with 5% CO2 at 37° C. Cells were seeded at a density of 1×10^4 cells/ml in 96-well tissue culture plates.

| SMILES | regeneration of injured skin (injured skin) | toxicities [1] | HUVEC cell survival [2] |
| --- | --- | --- | --- |
| CC(C)(CO)C(O)C(=O)NCCCO (racemic) [panthenol, DL-panthenol] | stimulate the regeneration of injured skin | negligible |  |
| O=C(O)CC(O)(CC(=O)O)C(=O)O [citric acid, Citric acid] |  |  | died within 24 hours |
